Reference: US20240125678A1, “COMPOUND, CELLULAR VESICLE STAIN, AND METHOD FOR FLUORESCENT STAINING OF CELLULAR VESICLES” (National University Corporation Tokai National Higher …, priority 2021, published 2024)

Tests used:
[1] = tested on: cellular vesicles / autophagosomes of B16F10 cells; experiment: Detection of autophagosomes using a PIKfyve inhibitor; type: cell-based, mouse; settings: 3 μM
Method: An endosome-derived intracellular vesicle formation inhibitor (PIKfyve inhibitor) was used to detect autophagosomes. The procedure is illustrated below. • (1) 3×10^4 of B16F10 cells were plated in a glass bottom dish and cultured for 24 hours. • (2) Compound 1 was added to have the final concentration of 3 μM. • (3) Measurement was performed by using a fluorescence microscope. Note that the measurement was performed with excitation at 470 nm. • (4) PIKfyve inhibitor (HY-13228 (MedChemExpress)) was then added to the culture medium to have the final concentration of 10 μM, which was cultured for 1 hour. • (5) Measurement was performed by using the fluorescence microscope. • (6) PIKfyve inhibitor-containing culture medium was aspirated off, and washing operation was performed twice with a new culture medium, which was cultured with another new culture medium for 3 hours. • (7) Measurement was performed by using the fluorescence microscope.

[2] = tested on: cellular vesicles of B16F10 cells; experiment: Specificity 2: comparison with another cellular vesicle staining agent; type: cell-based, mouse; settings: Compound 1 3 μM without washing, ExoSparkler Mem Dye-Red 1 μL/mL with washing
Method: Compound 1 was used for fluorescent staining of intracellular vesicles. The procedure is illustrated below. • (1) 3×10^4 of B16F10 cells were plated in a glass bottom dish and cultured for 24 hours. • (2) Compound 1 was added to the culture medium to have the final concentration of 3 μM. • (3) Measurement was performed by using the fluorescence microscope. Note that the measurement was performed with excitation at 470 nm.
Comparative example 1 is the same as Example 18 except that, instead of Compound 1, 1 μL/mL of ExoSparkler Mem Dye-Red (340-09671 (Dojindo Laboratories)) was added to the culture medium, the culture medium was aspirated off after the addition of ExoSparkler Mem Dye-Red, and a new culture medium was added for washing. Note that the measurement was performed with excitation at 540 nm.

[3] = tested on: cellular vesicles of living B16F10 cells; experiment: Specificity 1: staining of cellular vesicles of living versus fixed (dead) cells; type: cell-based, mouse; settings: B16F10, 0.3 μM, mixed fixed (dead) and living cells
[4] = tested on: cellular vesicles of mouse malignant melanoma cells B16F10; experiment: Fluorescent staining of intracellular vesicles with Compound 1 and anti-CD63 antibody; type: cell-based
[5] = tested on: cellular vesicles of keratinocyte cells (PSVK1); experiment: Fluorescent staining of cellular vesicles in keratinocyte cells (PSVK1); type: cell-based, human; settings: 0.3 μM, excitation 470 nm
Method: Compound 1 was used to fluorescently stain cellular vesicles of keratinocyte cells (PSVK1). The procedure is illustrated below. • (1) PSVK1 cells (obtained from National Institute of Biomedical Innovation, Health and Nutrition, Cell Bank) were plated in a glass bottom dish and cultured for 24 hours. […] Note that the measurement was performed with excitation at 470 nm.

milk exosomes [6] = experiment: Calibration curve in exosome detection; settings: 0.3 μM, milk exosomes 0.1 to 1 ng per well, fetal bovine serum/phosphate buffer
[7] = tested on: cellular vesicles of B16F10 cells; experiment: Specificity 3: staining in the presence of foreign substances (mouse dung); type: cell-based; settings: B16F10 cells mixed with mouse dung suspension; Compound 1 0.3 μM; CellMask reagent 1 μL
Method: Intracellular vesicles were fluorescently stained by Compound 1 in the presence of foreign substances. The procedure is illustrated below. • (1) 100 mg of mouse dung was collected, and the collected dung was suspended in 10-fold volume (1 mL) of phosphate buffer. • (2) B16F10 cells were detached using trypsin EDTA (NACALAI TESQUE) and collected, and 1×10^4 cells were suspended in 100 μL of phosphate buffer and mixed with 10 μL of the mouse dung suspension of (1) . • (3) The suspension of the cells and the […] was spread on a glass bottom dish, and 300 μM of Compound 1 was added to have the final concentration of 0.3 μM. • (4) Measurement was performed by using the fluorescence microscope. Note that the measurement was performed with excitation at 470 nm.
Comparative example 2 is the same as Example 19 except that, instead of Compound 1, 1 μL of CellMask reagent (C10045 (ThermoFisher)) was added to the suspension of the cells and the dung. Note that the measurement was performed with excitation at 540 nm.

[8] = tested on: cellular vesicles of HEK293 cells; experiment: Fluorescent staining of cellular vesicles in HEK293 cells; type: cell-based, human; settings: 0.3 μM, excitation 470 nm
Method: Compound 1 was used to fluorescently stain cellular vesicles of HEK293 cells. The procedure is illustrated below. • (1) HEK293A cells (ThermoFisher) were plated in a glass bottom dish and cultured for 24 hours. […] Note that the measurement was performed with excitation at 470 nm.

[9] = tested on: labeled milk exosomes in HEK293A cells; experiment: Incorporation of labeled exosomes into cells; type: cell-based, human
milk exosomes [10] = experiment: Fluorescent staining of exosomes; settings: 0.3 μM in phosphate buffer
[11] = tested on: incorporation of labeled melanosomes into keratinocyte cells; experiment: Inhibition of incorporation of labeled melanosomes into cells; type: cell-based; settings: inhibitor final concentration 10 μM, 12 hours, melanosomes labeled with Compound 1, excitation 488 nm
Method: Incorporation of melanosomes into cells was measured in the presence of a melanosome uptake inhibitor. […] As the melanosome uptake inhibitor, 6-shogaol (192-16161 (Fujifilm Wako)) was used. • (13) After 12 hours, the cells were washed twice with 100 μL of phosphate buffer. • (14) A plate reader (GroMax Multi (Promega)) was used to measure the labeled melanosomes. […]
Comparative Example 4 is the same as Example 29 except that the measurement with the plate reader was performed for absorbance at 450 nm.

CN(C)c1ccc(CCCN(C)C2CCc3cc(OCCNc4ccc([N+](=O)[O-])c5nonc45)ccc32)cc1 (stereo not drawn) [Compound 1]
fluorescent staining of PIKfyve dependent cellular vesicles ([1]; before/after PIKfyve inhibitor 10 μM 1 hour): can also fluorescently stain the PIKfyve dependent cellular vesicles | fluorescent staining of autophagosome membrane ([1]; cultured 3 hours after removal of PIKfyve inhibitor): the autophagosome membrane enclosing the melanosome was fluorescently stained | specificity of fluorescent staining to cellular vesicles [2]: high specificity to cellular vesicles | staining of cellular vesicles of living cells versus dead cells [3]: fluorescently stains cellular vesicles of living cells | overlap of compound fluorescence with fluorescence of the antibody conjugated with CD63 ([4]; 0.3 μM, fixed, anti-CD63 antibody excited at 540 nm): overlap each other | fluorescent staining of cellular vesicles ([4]; final concentration 0.3 μM, 5 minutes, excitation 470 nm): can fluorescently stain cellular vesicles | fluorescent staining of cellular vesicle of PSVK1 cell [5]: can fluorescently stain | fluorescence intensity versus amount of added milk exosomes (milk exosomes [6]): the fluorescence intensity increased depending on the amount of externally added milk exosomes | specificity of fluorescent staining in the presence of foreign substances [7]: can specifically fluorescently stain cellular vesicles | fluorescent staining of cellular vesicle of HEK293 cell [8]: can fluorescently stain | incorporation of exosomes labeled with the compound into cells ([9]; HEK293A cells, 12 hours after addition): are incorporated into cells | conjugation with exosomes (overlap with ExoSparkler Mem Dye-Red fluorescence) ([9]; milk exosomes stained 5 minutes with 0.3 μM): specifically conjugates with the exosomes | fluorescence with milk exosomes added (milk exosomes [10]; 10 ng milk exosomes, excitation 302 nm): conjugates with exosomes that are cellular vesicles and emits fluorescence | fluorescence without milk exosomes (Comparative example 3) (milk exosomes [10]; no milk exosome added): no fluorescence was emitted

CCCCC/C=C/C(=O)CCc1ccc(O)c(OC)c1 [melanosome uptake inhibitor, 6-shogaol]
incorporation of labeled melanosomes into keratinocyte cells [11]: incorporation of the labeled melanosomes into keratinocyte cells is inhibited
